Results reported in ChEMBL document CHEMBL5291721, “A preclinical secondary pharmacology resource illuminates target-adverse drug reaction associations of marketed drugs” (Nat Commun, 2023).

Columns and labels:
[1] = target: T1, Alpha-1A adrenergic receptor (Homo sapiens, UniProt P35348)
T1 sequence (P35348 whole entry): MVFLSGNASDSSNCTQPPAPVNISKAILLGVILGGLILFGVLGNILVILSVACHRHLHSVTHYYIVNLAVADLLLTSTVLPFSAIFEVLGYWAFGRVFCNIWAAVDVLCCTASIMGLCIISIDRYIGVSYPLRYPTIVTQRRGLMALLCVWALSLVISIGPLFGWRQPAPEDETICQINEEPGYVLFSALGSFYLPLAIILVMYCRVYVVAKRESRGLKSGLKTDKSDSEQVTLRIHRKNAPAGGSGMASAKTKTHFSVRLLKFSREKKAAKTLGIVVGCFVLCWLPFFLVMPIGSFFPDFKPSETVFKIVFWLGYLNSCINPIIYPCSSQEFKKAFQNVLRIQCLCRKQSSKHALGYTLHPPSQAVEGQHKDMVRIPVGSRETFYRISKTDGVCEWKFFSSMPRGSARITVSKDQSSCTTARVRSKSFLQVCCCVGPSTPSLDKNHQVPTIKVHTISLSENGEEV

[2] = target: T2, Muscarinic acetylcholine receptor M2 (Homo sapiens, UniProt P08172)
T2 sequence (P08172 whole entry): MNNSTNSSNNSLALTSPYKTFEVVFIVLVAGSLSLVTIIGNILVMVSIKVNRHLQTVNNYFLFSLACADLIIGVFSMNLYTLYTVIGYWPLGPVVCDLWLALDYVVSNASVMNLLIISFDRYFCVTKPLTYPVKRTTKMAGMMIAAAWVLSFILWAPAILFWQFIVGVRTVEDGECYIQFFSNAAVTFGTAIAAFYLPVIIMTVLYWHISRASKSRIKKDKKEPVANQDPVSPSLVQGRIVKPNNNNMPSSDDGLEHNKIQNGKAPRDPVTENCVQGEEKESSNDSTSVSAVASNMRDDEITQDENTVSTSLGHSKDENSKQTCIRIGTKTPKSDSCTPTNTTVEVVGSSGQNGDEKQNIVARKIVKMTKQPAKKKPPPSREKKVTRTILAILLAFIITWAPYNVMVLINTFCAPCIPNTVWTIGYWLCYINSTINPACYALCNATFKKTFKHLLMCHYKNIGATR

Bile acid receptor [3] = target: T3, Bile acid receptor (Homo sapiens, UniProt Q96RI1); type: functional
T3 sequence (Q96RI1 whole entry): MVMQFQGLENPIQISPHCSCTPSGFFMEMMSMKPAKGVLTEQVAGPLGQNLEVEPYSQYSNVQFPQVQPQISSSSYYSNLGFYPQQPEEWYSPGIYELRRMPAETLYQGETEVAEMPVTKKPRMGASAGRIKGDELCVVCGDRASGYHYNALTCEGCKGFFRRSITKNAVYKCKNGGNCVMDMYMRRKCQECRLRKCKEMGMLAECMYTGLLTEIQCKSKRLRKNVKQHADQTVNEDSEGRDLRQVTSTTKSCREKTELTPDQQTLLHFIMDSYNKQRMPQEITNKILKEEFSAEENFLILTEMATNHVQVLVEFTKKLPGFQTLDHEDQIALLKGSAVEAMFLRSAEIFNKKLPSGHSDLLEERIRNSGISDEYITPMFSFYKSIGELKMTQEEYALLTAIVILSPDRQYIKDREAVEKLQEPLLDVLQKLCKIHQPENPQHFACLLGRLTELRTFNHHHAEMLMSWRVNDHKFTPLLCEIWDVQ

[4] = target: T4, Oxysterols receptor LXR-alpha (Homo sapiens, UniProt Q13133); type: functional
T4 sequence (Q13133 whole entry): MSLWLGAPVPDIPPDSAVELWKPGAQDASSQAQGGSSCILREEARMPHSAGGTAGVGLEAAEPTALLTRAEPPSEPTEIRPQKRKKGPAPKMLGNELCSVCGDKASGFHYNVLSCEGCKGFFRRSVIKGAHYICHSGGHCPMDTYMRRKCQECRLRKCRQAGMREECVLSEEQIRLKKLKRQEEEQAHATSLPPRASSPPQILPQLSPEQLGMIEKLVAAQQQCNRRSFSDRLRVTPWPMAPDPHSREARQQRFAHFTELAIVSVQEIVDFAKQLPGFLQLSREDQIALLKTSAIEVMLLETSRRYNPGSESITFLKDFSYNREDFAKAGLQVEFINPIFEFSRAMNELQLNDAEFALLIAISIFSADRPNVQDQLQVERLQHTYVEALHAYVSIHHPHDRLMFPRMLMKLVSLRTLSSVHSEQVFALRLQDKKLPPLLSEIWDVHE

Bile acid receptor [5] = target: T3, Bile acid receptor; type: functional; remark: listed apart in the source
[6] = target: T5, Oxysterols receptor LXR-beta (Homo sapiens, UniProt P55055); type: functional
T5 sequence (P55055 whole entry): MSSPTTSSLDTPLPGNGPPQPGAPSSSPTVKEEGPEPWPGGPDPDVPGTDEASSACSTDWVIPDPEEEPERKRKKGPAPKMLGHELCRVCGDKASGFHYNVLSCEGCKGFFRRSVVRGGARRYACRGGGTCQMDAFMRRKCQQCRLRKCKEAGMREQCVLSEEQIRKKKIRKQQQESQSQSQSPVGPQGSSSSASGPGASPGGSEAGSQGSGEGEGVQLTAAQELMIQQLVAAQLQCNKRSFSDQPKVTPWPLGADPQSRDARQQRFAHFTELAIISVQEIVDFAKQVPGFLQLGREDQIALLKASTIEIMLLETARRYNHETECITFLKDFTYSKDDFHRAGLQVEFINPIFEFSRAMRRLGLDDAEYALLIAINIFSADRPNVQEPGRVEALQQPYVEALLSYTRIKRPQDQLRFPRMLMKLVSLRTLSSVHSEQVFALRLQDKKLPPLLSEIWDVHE

Bile acid receptor [7] = target: T3, Bile acid receptor; type: functional; remark: listed apart in the source
[8] = target: T6, Retinoic acid receptor alpha (Homo sapiens, UniProt P10276); type: functional, cell-based
T6 sequence (P10276 whole entry): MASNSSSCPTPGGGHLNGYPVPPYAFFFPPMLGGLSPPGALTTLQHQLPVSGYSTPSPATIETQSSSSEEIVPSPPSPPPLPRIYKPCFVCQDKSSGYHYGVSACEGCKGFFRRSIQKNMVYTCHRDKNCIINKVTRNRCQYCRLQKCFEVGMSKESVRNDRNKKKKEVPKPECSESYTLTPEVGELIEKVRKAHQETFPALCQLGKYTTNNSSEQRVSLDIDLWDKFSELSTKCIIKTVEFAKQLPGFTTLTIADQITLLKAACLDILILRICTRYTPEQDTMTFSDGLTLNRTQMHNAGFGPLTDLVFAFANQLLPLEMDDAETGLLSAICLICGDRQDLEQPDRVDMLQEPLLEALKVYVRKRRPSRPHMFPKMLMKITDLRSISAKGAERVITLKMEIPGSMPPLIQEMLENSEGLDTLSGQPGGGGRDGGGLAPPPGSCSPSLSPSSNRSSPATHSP
Also: assay procedure not described here.

Row | Structure (SMILES) | AC50 [1] [µM] | AC50 [2] [µM] | AC50 (Bile acid receptor [3]) [µM] | AC50 [4] [µM] | AC50 (Bile acid receptor [5]) [µM] | AC50 [6] [µM] | AC50 (Bile acid receptor [7]) [µM] | AC50 [8] [µM]
1 | CC[C@H]1OC(=O)[C@H](C)[C@@H](O[C@H]2C[C@@](C)(OC)[C@@H](O)[C@H](C)O2)[C@H](C)[C@@H](O[C@@H]2O[C@H](C)C[C@H](N(C)C)[C@H]2O)[C@](C)(O)C[C@@H](C)CN(C)[C@H](C)[C@@H](O)[C@]1(C)O [AZITHROMYCIN] | > 30 |  |  |  |  |  |  | 
2 | CCc1oc2ccccc2c1C(=O)c1cc(I)c(O)c(I)c1 [BENZIODARONE] | > 30 |  |  |  |  |  |  | 
3 | O=C(OCC(O)CO)c1ccccc1Nc1ccnc2cc(Cl)ccc12 (stereo unspecified) [GLAFENINE] |  | > 30 |  |  |  |  |  | 
4 | CN1C(C(=O)Nc2ccccn2)=C(O)c2sc(Cl)cc2S1(=O)=O [LORNOXICAM] |  |  | > 30 | > 30 | > 30 | > 30 | > 30 | > 30
5 | Cc1c(C(=O)NN2CCCCC2)nn(-c2ccc(Cl)cc2Cl)c1-c1ccc(Cl)cc1 [RIMONABANT] |  |  | > 30 | > 30 | > 30 | > 30 | 14 | > 30
6 | Cc1cn([C@H]2C=C[C@@H](CO)O2)c(=O)[nH]c1=O [STAVUDINE] |  | > 30 |  |  |  |  |  | 
